One assay has as its target T1, human COX-2 (Homo sapiens, UniProt P35354).
T1 construct: expressed in transfected cells
T1 sequence (P35354 18-604): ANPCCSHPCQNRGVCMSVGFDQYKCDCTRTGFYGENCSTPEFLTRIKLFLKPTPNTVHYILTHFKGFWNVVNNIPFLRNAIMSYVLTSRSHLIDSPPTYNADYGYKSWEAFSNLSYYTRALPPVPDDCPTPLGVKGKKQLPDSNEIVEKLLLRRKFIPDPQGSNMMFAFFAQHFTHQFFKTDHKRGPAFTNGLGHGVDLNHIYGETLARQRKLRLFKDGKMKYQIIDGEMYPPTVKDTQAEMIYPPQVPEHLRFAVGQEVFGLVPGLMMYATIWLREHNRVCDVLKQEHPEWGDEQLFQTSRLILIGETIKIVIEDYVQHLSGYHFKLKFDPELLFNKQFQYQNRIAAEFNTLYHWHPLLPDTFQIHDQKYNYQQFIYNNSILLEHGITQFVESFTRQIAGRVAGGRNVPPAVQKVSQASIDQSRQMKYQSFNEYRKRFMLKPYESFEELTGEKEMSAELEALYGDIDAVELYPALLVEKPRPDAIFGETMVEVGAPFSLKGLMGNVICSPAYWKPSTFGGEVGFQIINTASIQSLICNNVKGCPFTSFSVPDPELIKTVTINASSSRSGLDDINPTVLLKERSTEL
Put plainly: Inhibition of PGE2 release in COS cells stably transfected with human COX-2. It counts as cell-based. The note with it: 30 μM arachidonic acid. How it is done:
(§1) Inhibitory activity against human COX-1 and COX-2 was assessed in COS cells which had been stably transfected with cDNA for human COX-1 and human COX-2. 24 Hours prior to experiment, COS cells were transferred from the 175 cm^2 flasks in which they were grown, onto 24-well cell culture plates using the following procedure. The incubation medium (Dulbecco's modified eagles medium (DMEM) supplemented with heat-inactivated foetal calf serum (10% v/v), penicillin (100 IU/ml), streptomycin (100 μg/ml) and geneticin (600 μg/ml)) was removed from a flask of confluent cells (1 flask at confluency contains approximately 1×10^7 cells). 5 ml of phosphate buffered saline (PBS) was added to the flask to wash the cells. Having discarded the PBS, cells were then incubated with 5 ml trypsin for 5 minutes in an incubator […]. The flask was then removed from the incubator and 5 ml of fresh incubation medium was added. The contents of the flask was transferred to a 250 ml sterile container and the volume of incubation medium subsequently made up to 100 ml. 1 ml cell suspension was pipetted into each well of 4×24-well cell culture plates. The plates were then placed in an incubator (37° C., 95% air/5% CO2) overnight. If more than 1 flask of cells were required, the cells from the individual flasks were combined before being dispensed into the 24-well plates.
Following the overnight incubation, the incubation medium was completely removed from the 24-well cell culture plates and replaced with 250 μl fresh DMEM (37° C.). The test compounds were made up to 250× the required test concentration in DMSO and were added to the wells in a volume of 1 μl. Plates were then mixed gently by swirling and then placed in an incubator for 1 hour (37° C., 95% air/5% CO2). […] Plates were then incubated for a further 10 minutes, after which the incubation medium was removed from each well of the plates and stored at −20° C., prior to determination of prostaglandin E2 (PGE2) levels using enzyme immunoassay. […] The selectivity ratio of inhibition of COX-1 versus COX-2 was calculated by comparing respective IC50 values.

For another assay, the target named is T2, human COX-1 (Homo sapiens, UniProt P23219).
T2 construct: expressed in transfected cells
Kind of assay: Inhibition of PGE2 release in COS cells stably transfected with human COX-1. The settings on record: 30 μM arachidonic acid. Type of assay: cell-based. On the procedure:
as §1
Following the overnight incubation, the incubation medium was completely removed from the 24-well cell culture plates and replaced with 250 μl fresh DMEM (37° C.). The test compounds were made up to 250× the required test concentration in DMSO and were added to the wells in a volume of 1 μl. Plates were then mixed gently by swirling and then placed in an incubator for 1 hour (37° C., 95% air/5% CO2). Following the incubation period, 10 μl of arachidonic acid (750 μM) was added to each well to give a final arachidonic acid concentration of 30 μM. Plates were then incubated for a further 10 minutes, after which the incubation medium was removed from each well of the plates and stored at −20° C., prior to determination of prostaglandin E2 (PGE2) levels using enzyme immunoassay. The inhibitory potency of the test compound was expressed as an IC50 value, which is defined as the concentration of the compound required to inhibit the PGE2 release from the cells by 50%. The selectivity ratio of inhibition of COX-1 versus COX-2 was calculated by comparing respective IC50 values.

T2 sequence (P23219 24-599): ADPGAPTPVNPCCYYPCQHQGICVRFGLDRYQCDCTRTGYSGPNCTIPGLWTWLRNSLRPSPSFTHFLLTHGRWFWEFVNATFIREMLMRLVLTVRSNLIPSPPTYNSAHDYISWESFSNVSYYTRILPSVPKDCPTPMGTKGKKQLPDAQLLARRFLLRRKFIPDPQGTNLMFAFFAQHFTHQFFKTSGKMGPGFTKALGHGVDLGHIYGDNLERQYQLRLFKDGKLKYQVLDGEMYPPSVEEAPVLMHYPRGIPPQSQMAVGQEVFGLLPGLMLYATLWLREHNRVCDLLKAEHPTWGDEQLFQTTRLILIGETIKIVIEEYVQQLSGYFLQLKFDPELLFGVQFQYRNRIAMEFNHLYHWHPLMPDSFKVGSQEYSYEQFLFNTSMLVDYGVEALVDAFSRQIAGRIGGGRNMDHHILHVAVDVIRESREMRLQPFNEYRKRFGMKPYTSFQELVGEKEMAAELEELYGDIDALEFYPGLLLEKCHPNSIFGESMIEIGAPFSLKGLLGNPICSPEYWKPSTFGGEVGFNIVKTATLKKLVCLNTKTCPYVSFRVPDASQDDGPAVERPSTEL

In the case of `CS(=O)(=O)c1ccc(-c2cc(C(F)(F)F)nc(NC3CCOCC3)n2)cc1` [Example 1, 4-[4-(methylsulfonyl)phenyl]-N-tetrahydro-2H-pyran-4-yl-6-(trifluoromethyl)pyrimidin-2-amine], the IC50 against human COX-2 is 18 nM; at human COX-1, > 91000 nM.

Consider `CN(c1nc(-c2ccc(S(C)(=O)=O)cc2)cc(C(F)(F)F)n1)C1CCOCC1` [Example 2, 4-[4-(Methylsulfonyl)phenyl]-N-methyl-N-tetrahydro-2H-pyran-4-yl-6-(trifluoromethyl)pyrimidin-2-amine], for which the IC50 was 16.8 nM at human COX-2 and 60400 nM against human COX-1.

Regarding `CCN(c1nc(-c2ccc(S(C)(=O)=O)cc2)cc(C(F)(F)F)n1)C1CCOCC1` [Example 3, 4-[4-(Methylsulfonyl)phenyl]-N-ethyl-N-tetrahydro-2H-pyran-4-yl-6-(trifluoromethyl)pyrimidin-2-amine], the IC50 against human COX-2 amounted to 24.9 nM; on human COX-1, 69700 nM.

Turning to `CCCCN(c1nc(-c2ccc(S(C)(=O)=O)cc2)cc(C(F)(F)F)n1)C1CCOCC1` [Example 4, 4-[4-(Methylsulfonyl)phenyl]-N-butyl-N-tetrahydro-2H-pyran-4-yl-6-(trifluoromethyl)pyrimidin-2-amine], the IC50 was determined as 143 nM against human COX-2 and 71800 nM against human COX-1.

As a reminder, the IC50 is the concentration that inhibits the measured activity by half. A low value points to greater potency in that assay.

(Values after patent US7084148B2, “Substituted pyrimidines as selective cyclooxygenase-2 inhibitors” (SmithKline Beecham Corporation, priority 2000, dated 2006).)
